This note sets out measurements from the NIST ThermoML archive (doi:10.1021/acs.jced.5b00355).

± gives the expanded uncertainty stated by the source.

This data set can be described thus: cn = amount concentration of the nth substance listed, in mol/dm3. To be noted: 298.2 K, 101 kPa, Liquid, Pycnometric method.

Regarding `Nc1nnc(-c2cccc(Cl)c2Cl)c(N)n1` [lamotrigine] + CCOC(C)=O, the mass density (commonly the mass of a sample divided by its volume) (c1 = 0.0106) came to 995.4 ± 8 kg/m3.

As to `Nc1nnc(-c2cccc(Cl)c2Cl)c(N)n1` [lamotrigine] + CC(C)=O, the mass density (c1 = 0.0167) is listed as 852.8 ± 6.9 kg/m3.

Take `Nc1nnc(-c2cccc(Cl)c2Cl)c(N)n1` [lamotrigine] + CCCO: the mass density (c1 = 0.0245) amounted to 893.8 ± 7.2 kg/m3.

As for `Nc1nnc(-c2cccc(Cl)c2Cl)c(N)n1` [lamotrigine] + CO, where the note is “c1 = 0.0199”, the mass density stood at 834.7 ± 6.7 kg/m3.

Consider `Nc1nnc(-c2cccc(Cl)c2Cl)c(N)n1` [lamotrigine] + CCO, for which the mass density (c1 = 0.0134) turned out to be 851.7 ± 6.8 kg/m3.
